Assay: mn = molality of the nth substance listed, in mol/kg
Conditions: Liquid, Vibrating tube method

[Ca+2].[Cl-].[Cl-] [calcium chloride] + CCO
Conditions	mass density [kg/m3]
298.15 K, 210 kPa, m1 = 1.55	901.58
298.15 K, 260 kPa, m1 = 1.266	881.44
298.15 K, 280 kPa, m1 = 0.1743	800.14
298.15 K, 480 kPa, m1 = 0.09327	793.4
298.15 K, 670 kPa, m1 = 0.9896	861.73
298.15 K, 1020 kPa, m1 = 0.4379	820.65
298.15 K, 1170 kPa, m1 = 0.6899	839.86
298.15 K, 5010 kPa, m1 = 0.6899	843.06
298.15 K, 5020 kPa, m1 = 1.55	905.41
298.15 K, 5030 kPa, m1 = 0.4379	824.03
298.15 K, 5060 kPa, m1 = 0.09327	797.34
298.15 K, 5060 kPa, m1 = 1.266	885.32
298.15 K, 6330 kPa, m1 = 0.9896	866.36
298.15 K, 6580 kPa, m1 = 0.1743	804.98
298.15 K, 10030 kPa, m1 = 0.09327	801.45
298.15 K, 10410 kPa, m1 = 1.55	909.48
298.15 K, 10450 kPa, m1 = 0.4379	828.43
298.15 K, 10830 kPa, m1 = 0.9896	869.87
298.15 K, 10850 kPa, m1 = 1.266	889.78
298.15 K, 11050 kPa, m1 = 0.6899	847.88
298.15 K, 11330 kPa, m1 = 0.1743	808.85
298.15 K, 14860 kPa, m1 = 1.266	892.71
298.15 K, 15090 kPa, m1 = 0.9896	873.05
298.15 K, 15120 kPa, m1 = 0.6899	850.99
298.15 K, 15240 kPa, m1 = 1.55	912.94
298.15 K, 15470 kPa, m1 = 0.09327	805.77
298.15 K, 15480 kPa, m1 = 0.4379	832.33
298.15 K, 15720 kPa, m1 = 0.1743	812.29
298.15 K, 20020 kPa, m1 = 0.9896	876.57
298.15 K, 20080 kPa, m1 = 1.266	896.35
298.15 K, 20130 kPa, m1 = 0.6899	854.64
298.15 K, 20260 kPa, m1 = 1.55	916.34
298.15 K, 20460 kPa, m1 = 0.4379	836.02
298.15 K, 20490 kPa, m1 = 0.1743	815.89
298.15 K, 20640 kPa, m1 = 0.09327	809.69
298.15 K, 25010 kPa, m1 = 1.55	919.38
298.15 K, 25130 kPa, m1 = 0.9896	880.03
298.15 K, 25310 kPa, m1 = 0.6899	858.24
298.15 K, 25390 kPa, m1 = 0.09327	813.15
298.15 K, 25410 kPa, m1 = 1.266	899.86
298.15 K, 25750 kPa, m1 = 0.4379	839.75
298.15 K, 25820 kPa, m1 = 0.1743	819.73
298.15 K, 30060 kPa, m1 = 1.266	902.74
298.15 K, 30110 kPa, m1 = 0.9896	883.22
298.15 K, 30120 kPa, m1 = 0.6899	861.41
298.15 K, 30190 kPa, m1 = 0.09327	816.48
298.15 K, 30420 kPa, m1 = 1.55	922.62
298.15 K, 30640 kPa, m1 = 0.4379	843.03
298.15 K, 31460 kPa, m1 = 0.1743	823.58
298.15 K, 34210 kPa, m1 = 0.6899	863.97
298.15 K, 35050 kPa, m1 = 1.55	925.22
298.15 K, 35340 kPa, m1 = 0.1743	826.11
298.15 K, 35510 kPa, m1 = 0.9896	886.47
298.15 K, 35640 kPa, m1 = 0.09327	820.09
298.15 K, 35830 kPa, m1 = 0.4379	846.33
298.15 K, 35910 kPa, m1 = 1.266	906.14
298.15 K, 39770 kPa, m1 = 0.6899	867.27
298.15 K, 39860 kPa, m1 = 0.9896	888.93
298.15 K, 39920 kPa, m1 = 0.09327	822.78
298.15 K, 39960 kPa, m1 = 1.55	927.8
298.15 K, 39970 kPa, m1 = 0.4379	848.83
298.15 K, 39980 kPa, m1 = 1.266	908.34
298.15 K, 40180 kPa, m1 = 0.1743	829.13
323.15 K, 150 kPa, m1 = 0.09327	771.32
323.15 K, 240 kPa, m1 = 0.1743	777.83
323.15 K, 310 kPa, m1 = 1.266	857.3
323.15 K, 450 kPa, m1 = 0.4379	798.42
323.15 K, 520 kPa, m1 = 1.55	876.88
323.15 K, 1060 kPa, m1 = 0.6899	817.18
323.15 K, 1570 kPa, m1 = 0.9896	839.21
323.15 K, 4980 kPa, m1 = 0.4379	802.82
323.15 K, 5060 kPa, m1 = 0.1743	782.74
323.15 K, 5070 kPa, m1 = 1.266	861.31
323.15 K, 5120 kPa, m1 = 1.55	881.08
323.15 K, 5160 kPa, m1 = 0.9896	842.61
323.15 K, 5240 kPa, m1 = 0.09327	776.5
323.15 K, 5300 kPa, m1 = 0.6899	821.26
323.15 K, 9780 kPa, m1 = 0.4379	807.29
323.15 K, 10060 kPa, m1 = 1.266	865.4
323.15 K, 10180 kPa, m1 = 0.6899	825.76
323.15 K, 10340 kPa, m1 = 0.09327	781.44
323.15 K, 10480 kPa, m1 = 0.1743	787.98
323.15 K, 10740 kPa, m1 = 1.55	885.92
323.15 K, 10890 kPa, m1 = 0.9896	847.78
323.15 K, 15020 kPa, m1 = 1.55	889.39
323.15 K, 15060 kPa, m1 = 0.4379	811.96
323.15 K, 15370 kPa, m1 = 0.6899	830.3
323.15 K, 15410 kPa, m1 = 1.266	869.66
323.15 K, 15420 kPa, m1 = 0.9896	851.64
323.15 K, 15620 kPa, m1 = 0.1743	792.67
323.15 K, 15780 kPa, m1 = 0.09327	786.43
323.15 K, 19980 kPa, m1 = 1.266	873.2
323.15 K, 20040 kPa, m1 = 0.4379	816.13
323.15 K, 20060 kPa, m1 = 0.9896	855.4
323.15 K, 20420 kPa, m1 = 1.55	893.5
323.15 K, 20640 kPa, m1 = 0.1743	796.99
323.15 K, 20640 kPa, m1 = 0.6899	834.66
323.15 K, 20980 kPa, m1 = 0.09327	790.93
323.15 K, 24860 kPa, m1 = 1.266	876.87
323.15 K, 24870 kPa, m1 = 0.4379	819.96
323.15 K, 25080 kPa, m1 = 0.9896	859.23
323.15 K, 25310 kPa, m1 = 1.55	896.97
323.15 K, 25390 kPa, m1 = 0.6899	838.36
323.15 K, 25680 kPa, m1 = 0.09327	794.77
323.15 K, 25870 kPa, m1 = 0.1743	801.22
323.15 K, 30020 kPa, m1 = 0.4379	823.82
323.15 K, 30070 kPa, m1 = 1.266	880.67
323.15 K, 30140 kPa, m1 = 1.55	900.16
323.15 K, 30180 kPa, m1 = 0.6899	841.89
323.15 K, 30380 kPa, m1 = 0.1743	804.64
323.15 K, 30390 kPa, m1 = 0.09327	798.4
323.15 K, 30450 kPa, m1 = 0.9896	863.05
323.15 K, 35150 kPa, m1 = 0.4379	827.42
323.15 K, 35160 kPa, m1 = 1.266	884.27
323.15 K, 35210 kPa, m1 = 0.9896	866.21
323.15 K, 35620 kPa, m1 = 1.55	903.49
323.15 K, 35760 kPa, m1 = 0.6899	845.73
323.15 K, 35870 kPa, m1 = 0.09327	802.35
323.15 K, 35920 kPa, m1 = 0.1743	808.56
323.15 K, 39760 kPa, m1 = 0.4379	830.46
323.15 K, 39860 kPa, m1 = 0.09327	805.04
323.15 K, 39870 kPa, m1 = 1.266	887.49
323.15 K, 39940 kPa, m1 = 0.1743	811.21
323.15 K, 39940 kPa, m1 = 0.6899	848.42
323.15 K, 39960 kPa, m1 = 0.9896	869.15
323.15 K, 39980 kPa, m1 = 1.55	905.92
348.15 K, 270 kPa, m1 = 1.266	833.32
348.15 K, 310 kPa, m1 = 1.55	852.87
348.15 K, 580 kPa, m1 = 0.9896	814.32
348.15 K, 620 kPa, m1 = 0.4379	774.92
348.15 K, 750 kPa, m1 = 0.09327	748.39
348.15 K, 750 kPa, m1 = 0.6899	792.97
348.15 K, 890 kPa, m1 = 0.1743	755.18
348.15 K, 5060 kPa, m1 = 0.9896	819.3
348.15 K, 5060 kPa, m1 = 1.266	837.99
348.15 K, 5080 kPa, m1 = 0.6899	797.87
348.15 K, 5090 kPa, m1 = 0.1743	760.16
348.15 K, 5130 kPa, m1 = 0.4379	780.06
348.15 K, 5210 kPa, m1 = 1.55	858.12
348.15 K, 5620 kPa, m1 = 0.09327	754.25
348.15 K, 10160 kPa, m1 = 1.55	863.08
348.15 K, 10240 kPa, m1 = 0.4379	785.57
348.15 K, 10310 kPa, m1 = 0.9896	824.81
348.15 K, 10410 kPa, m1 = 0.6899	803.58
348.15 K, 10450 kPa, m1 = 1.266	843.06
348.15 K, 10480 kPa, m1 = 0.1743	766.21
348.15 K, 10820 kPa, m1 = 0.09327	760.15
348.15 K, 14890 kPa, m1 = 0.6899	808.11
348.15 K, 15210 kPa, m1 = 0.9896	829.63
348.15 K, 15310 kPa, m1 = 0.4379	790.73
348.15 K, 15380 kPa, m1 = 0.09327	765.02
348.15 K, 15680 kPa, m1 = 1.55	868.22
348.15 K, 15760 kPa, m1 = 0.1743	771.77
348.15 K, 15840 kPa, m1 = 1.266	847.95
348.15 K, 19980 kPa, m1 = 1.266	851.59
348.15 K, 20060 kPa, m1 = 0.6899	813.01
348.15 K, 20430 kPa, m1 = 0.09327	770.09

— the NIST ThermoML archive (doi:10.1021/je800234h)
